Reference: patent US11459339B2, “Biaryl derivative, preparation method thereof and pharmaceutical application thereof” (Abbisko Therapeutics Co., Ltd., priority 2018, dated 2022)

What was measured:
[1] = biological target: interaction between PD-1 and PD-L1 (Homo sapiens (Human), UniProt Q9NZQ7); assay: PD1-PDL1 HTRF binding activity test (Cisbio PD-1/PD-L1 binding assay kit); conditions: read-out: PD1-PDL1 HTRF Binding Activity IC50
Procedure: A. PD1-PDL1 HTRF Binding Activity Test
The effect of compounds and positive compounds of the examples of the present invention on the interaction between PD-1 and PD-L1 was determined by the PD-1/PD-L1 binding assay kit from Cisbio (#64ICP01PEG or 64ICP01PEH). The detailed experimental process was as follows:
1. Pre-diluted compound solution, 4 μL of Tag1-PD-L1 and 4 μL of Tag2-PD1 were added to each well of a 384-well plate;
3. After incubated for 2 hrs at room temperature or overnight at 4° C., plates were read on Envision of Pelkin Elmer; and readings at 665 nm and 620 nm were recorded, and the ratio of the two readings was taken as a reading for each well;
4. The reading of each well after compound treatment was compared with the reading of DMSO treated wells to obtain the percent inhibition of the compound; and
5. IC50 values of compounds and positive compounds of the examples of the present invention were determined by non-linear regression analysis of percent inhibition at different compound concentrations.

[2] = biological target: interaction between PD-1 and PD-L1 expressed on cell surfaces (Homo sapiens (Human), UniProt Q9NZQ7); assay: Jurkat reporter gene cellular assay (Jurkat/NF-κB-luc/PD1 cells cocultured with Raji-PD-L1 cells, OKT-3 stimulation); format: cell-based; conditions: NF-κB-luc reporter activation fold, 6 hrs; read-out: Cell Activity EC50
Chain of interaction between PD-1 and PD-L1 expressed on cell surfaces (Q9NZQ7 19-290): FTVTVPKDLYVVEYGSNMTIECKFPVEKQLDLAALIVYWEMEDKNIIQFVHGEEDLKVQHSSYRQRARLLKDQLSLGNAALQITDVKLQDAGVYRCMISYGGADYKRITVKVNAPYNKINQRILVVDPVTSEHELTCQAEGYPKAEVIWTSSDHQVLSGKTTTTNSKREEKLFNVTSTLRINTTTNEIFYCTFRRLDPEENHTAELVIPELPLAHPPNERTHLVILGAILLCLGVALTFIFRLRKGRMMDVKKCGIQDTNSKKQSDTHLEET
Procedure: B. Jurkat Reporter Gene Cellular Assay
The effect of compounds of the examples of the present invention and positive compounds on the interaction between PD-1 and PD-L1 expressed on cell surfaces, and the related influence on T cell functions, were determined by a Jurkat reporter gene cellular assay.
Briefly, the reporter gene plasmid of NF-κB-luc and the plasmid of human PD-1 were transfected into Jurkat cells to establish a stably transfected cell line capable of stably expressing both PD-1 and NF-κB-Luc reporter genes; the expression level of PD-1 on the cell surface was confirmed by flow cytometry: and the expression of the reporter gene was confirmed via the response of the reporter gene stimulated by OKT-3 and Raiji cells.
In addition, the plasmid of human PD-L1 was transfected into Raji cells to obtain a cell line capable of stably expressing PD-L1. Jurkat/NF-κB-luc/PD1 cells and Raji-PD-L1 cells were then cocultured and stimulated with OKT-3. On this basis, the compounds were added, and the enhancement of the signal pathway of T cell activation by the inhibitory effect of the compounds on the interaction between PD-1 and PD-L1 was evaluated by readings of reporter gene responses. The specific experimental process was as follows:
2. 20 μL of Raji-PD-L1 cell suspension was added to each well with 5*10^4 cells for each well, and was incubated in an incubator for 20 min;
3. 20 μL of Jurkat/NF-κb-luc/PD-1 cell suspension was added to each well with 5*10^4 cells for each well, and well mixed, and 6 hrs later, Bright-glo (Promega, E2620) was applied and plates were read on Envision;
4. the reading of each well treated with the compound was compared with the reading of each well treated with DMSO to obtain the activation fold of the compound; and
5. EC50 values of compounds and positive compounds of the examples of the present invention were determined by non-linear regression analysis of activation folds at different compound concentrations.

Chain of interaction between PD-1 and PD-L1 (Q9NZQ7 19-238): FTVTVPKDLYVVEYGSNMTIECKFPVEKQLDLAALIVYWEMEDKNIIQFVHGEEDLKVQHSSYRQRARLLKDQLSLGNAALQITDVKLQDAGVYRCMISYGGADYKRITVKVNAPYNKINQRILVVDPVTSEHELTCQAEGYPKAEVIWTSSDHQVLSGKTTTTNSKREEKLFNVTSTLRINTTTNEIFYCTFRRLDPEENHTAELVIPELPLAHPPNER

SMILES	IC50 [1]	EC50 [2]
COC(=O)[C@H]1CCCCN1Cc1cnc(C(=O)Nc2cccc(-c3cccc(NC(=O)c4cc(C)c(CN5CCCC[C@@H]5C(=O)OC)cn4)c3C)c2C)cc1C [Example 28, dimethyl 1,1′-(((((2,2′-dimethyl-[1,1′-biphenyl]-3,3′-diyl)bis (azanediyl))bis(carbonyl))bis (4-methylpyridine-6,3-diyl))bis(methylene))(2R,2′R)-bis (piperidine-2-carboxylate)]	9.55 nM	> 10000 nM
Cc1cc(C(=O)Nc2cccc(-c3cccc(NC(=O)c4cc(C)c(CN5CCCC[C@@H]5C(=O)O)cn4)c3C)c2C)ncc1CN1CCCC[C@@H]1C(=O)O [Example 29, (2R,2′R)-1,1′-(((((2,2′-dimethyl-[1,1′-biphenyl]-3,3′-diyl)bis (azanediyl))bis(carbonyl))bis (4-methylpyridine-6,3-diyl))bis(methylene))bis(piperidine-2-carboxylic acid)]	0.36 nM	1460 nM
Cc1cc(C(=O)Nc2cccc(-c3cccc(NC(=O)c4cc(C)c(CN[C@H](CCO)C(=O)O)cn4)c3C)c2C)ncc1CN[C@H](CCO)C(=O)O [Example 30, (2R,2′R)-2,2′-((((((2,2′-dimethyl-[1,1′-biphenyl]-3,3′-diyl)bis(azanediyl))bis(carbonyl))bis(4-methylpyridine-6,3-diyl))bis(methylene))bis(azanediyl)) bis(4-hydroxybutanoic acid)]	1.24 nM	448 nM
COc1cc(C(=O)Nc2cccc(-c3cccc(NC(=O)c4cc(OC)c(CN5CCOCC5)cn4)c3C)c2C)ncc1CN1CCOCC1 [Example 31, N,N′-(2,2′-dimethyl-[1,1′-biphenyl]-3,3′-diyl)bis(4-methoxy-5-(morpholinomethyl)picolinamide)]	1 nM	2080 nM
CNCc1cnc(C(=O)Nc2cccc(-c3cccc(NC(=O)c4cc(OC)c(CNC)cn4)c3C)c2C)cc1OC [Example 32, N,N'-(2,2′-dimethyl-[1,1′-biphenyl]-3,3′-diyl)bis(4-methoxy-5-((methylamino)methyl)picolinamide)]	0.27 nM	53 nM
COc1cc(C(=O)Nc2cccc(-c3cccc(NC(=O)c4cc(OC)c(CNC[C@H](O)CO)cn4)c3C)c2C)ncc1CNC[C@H](O)CO [Example 33, N,N'-(2,2′-dimethyl-[1,1′-biphenyl]-3,3′-diyl)(5((((S)-2,3-dihydroxypropyl)amino)methyl)-4-methoxypicolinamide)]	0.65 nM	109 nM
COCCNCc1cnc(C(=O)Nc2cccc(-c3cccc(NC(=O)c4cc(OC)c(CNCCOC)cn4)c3C)c2C)cc1OC [Example 34, N,N'-(2,2′-dimethyl-[1,1′-biphenyl]-3,3′-diyl)bis(4-methoxy-5-(((2-methoxyethyl)amino)methyl)picolinamide)]	0.21 nM	111 nM
COc1cc(C(=O)Nc2cccc(-c3cccc(NC(=O)c4cc(OC)c(CNCCOC(F)F)cn4)c3C)c2C)ncc1CNCCOC(F)F [Example 35, N,N'-(2,2′-dimethyl-[1,1′-biphenyl]-3,3′-diyl)bis(5-(((2-(difluoromethoxy)ethyl)amino)methyl)-4-methoxypicolinamide)]	1.11 nM	257 nM
COCCN(C)Cc1cnc(C(=O)Nc2cccc(-c3cccc(NC(=O)c4cc(OC)c(CN(C)CCOC)cn4)c3C)c2C)cc1OC [Example 36, N,N'-(2,2′-dimethyl-[1,1′-biphenyl]-3,3′-diyl)bis(4-methoxy-5-(((2-methoxyethyl)(methyl)amino)methyl)picolinamide)]	0.74 nM	456 nM
COc1cc(C(=O)Nc2cccc(-c3cccc(NC(=O)c4cc(OC)c(CN(C)CCO)cn4)c3C)c2C)ncc1CN(C)CCO [Example 37, N,N'-(2,2′-dimethyl-[1,1′-biphenyl]-3,3′-diyl)bis(5-(((2-hydroxyethyl) (methyl)amino)methyl)-4-methoxypicolinamide)]	0.04 nM	118 nM
COc1cc(C(=O)Nc2cccc(-c3cccc(NC(=O)c4cc(OC)c(CNCCOC(C)=O)cn4)c3C)c2C)ncc1CNCCOC(C)=O [Example 38, ((((((2,2′-dimethyl-[1,1′-biphenyl]-3,3′-diyl)bis(azanediyl))bis (carbonyl))bis(4-methoxypyridine-6,3-diyl))bis(methylene))bis (azanediyl))bis(ethane-2,1-diyl) diacetate]	0.83 nM	7000 nM
COc1cc(C(=O)Nc2cccc(-c3cccc(NC(=O)c4cc(OC)c(CNCCNC(C)=O)cn4)c3C)c2C)ncc1CNCCNC(C)=O [Example 39, N,N′-(2,2′-dimethyl-[1,1′-biphenyl]-3,3′-diyl)bis(5-(((2-acetamidoethyl)amino)methyl)-4-methoxypicolinamide)]	0.86 nM	225 nM
COc1cc(C(=O)Nc2cccc(-c3cccc(NC(=O)c4cc(OC)c(CNCC(C)(C)O)cn4)c3C)c2C)ncc1CNCC(C)(C)O [Example 40, N,N'-(2,2′-dimethyl-[1,1′-biphenyl]-3,3′-diyl)bis(5-(((2-hydroxy-2-methylpropyl)amino)methyl)-4-methoxypicolinamide)]	0.29 nM	172 nM
COc1cc(C(=O)Nc2cccc(-c3cccc(NC(=O)c4cc(OC)c(CNCC5(O)CC5)cn4)c3C)c2C)ncc1CNCC1(O)CC1 [Example 41, N,N'-(2,2′-dimethyl-[1,1′-biphenyl]-3,3′-diyl)bis(5-((((1-hydroxycyclopropyl)methyl)amino)methyl)-4-methoxypicolinamide)]	0.032 nM	74 nM
COc1cc(C(=O)Nc2cccc(-c3cccc(NC(=O)c4cc(OC)c(CN[C@H](C)CO)cn4)c3C)c2C)ncc1CN[C@H](C)CO [Example 42, N,N'-(2,2′-dimethyl-[1,1′-biphenyl]-3,3′-diyl)bis(5-((((R)-1-hydroxypropan-2-yl)amino)methyl)-4-methoxypicolinamide)]	0.28 nM	60 nM
COc1cc(C(=O)Nc2cccc(-c3cccc(NC(=O)c4cc(OC)c(CN[C@@H](C)CO)cn4)c3C)c2C)ncc1CN[C@@H](C)CO [Example 43, N,N'-(2,2′-dimethyl-[1,1′-biphenyl]-3,3′-diyl)bis(5-((((S)-1-hydroxypropan-2-yl)amino)methyl)-4-methoxypicolinamide)]	0.29 nM	11 nM
COc1cc(C(=O)Nc2cccc(-c3cccc(NC(=O)c4cc(OC)c(CN[C@H]5CCC[C@@H]5O)cn4)c3C)c2C)ncc1CN[C@H]1CCC[C@@H]1O [Example 44, N,N'-(2,2′-dimethyl-[1,1′-biphenyl]-3,3′-diyl)bis(5-((((1S,2S)-2-hydroxycyclopentyl)amino)methyl)-4-methoxypicolinamide)]	0.24 nM	55 nM
COc1cc(C(=O)Nc2cccc(-c3cccc(NC(=O)c4cc(OC)c(CN5CC(O)C5)cn4)c3C)c2C)ncc1CN1CC(O)C1 [Example 45, N,N'-(2,2′-dimethyl-[1,1′-biphenyl]-3,3′-diyl)bis(5-((3-hydroxyazetidin-l-yl)methyl)-4-methoxypicolinamide)]	0.22 nM	41 nM
COc1cc(C(=O)Nc2cccc(-c3cccc(NC(=O)c4cc(OC)c(CN5CC[C@@H](O)C5)cn4)c3C)c2C)ncc1CN1CC[C@@H](O)C1 [Example 47, N,N'-(2,2′-dimethyl-[1,1′-biphenyl]-3,3′-diyl)bis(5-(((R)-3-hydroxypyrrolidin-1-yl)methyl)-4-methoxypicolinamide)]	0.27 nM	46 nM
COc1cc(C(=O)Nc2cccc(-c3cccc(NC(=O)c4cc(OC)c(CN5CC[C@H](O)C5)cn4)c3C)c2C)ncc1CN1CC[C@H](O)C1 [Example 48, N,N'-(2,2′-dimethyl-[1,1′-biphenyl]-3,3′-diyl)bis(5-(((S)-3-hydroxypyrrolidin-1-yl)methyl)-4-methoxypicolinamide)]	0.31 nM	102 nM
COc1cc(C(=O)Nc2cccc(-c3cccc(NC(=O)c4cc(OC)c(CN5CCC(O)CC5)cn4)c3C)c2C)ncc1CN1CCC(O)CC1 [Example 49, N,N'-(2,2′-dimethyl-[1,1′-biphenyl]-3,3′-diyl)bis(5-((4-hydroxypiperidin-l-yl)methyl)-4-methoxypicolinamide)]	0.33 nM	104 nM
